Data from patent US20220401514A1, “ANTIMICROBIAL, BACTERIOPHAGE-DERIVED POLYPEPTIDES AND THEIR USE AGAINST GRAM-NEGATIVE AND ACID-FAST BACTERIA” (CONTRAFECT CORPORATION, priority 2019, published 2022).

System: Pseudomonas aeruginosa isolates
Assay: MIC against CDC Pseudomonas aeruginosa panel (n = 55)
Type: cell-based
Method: MIC values were determined using the methodology described above, i.e., the standard broth microdilution reference method defined by CLSI.

MRLKMARRRYRLPRRRSRRLFSRTALRMHPRNRLRRIMRGGIRF [Chp2]
0.5 µg/mL: MIC (CDC Antibiotic-Resistant Bank No. 0229) | MIC (CDC Antibiotic-Resistant Bank No. 0230) | MIC (CDC Antibiotic-Resistant Bank No. 0231) | MIC (CDC Antibiotic-Resistant Bank No. 0232) | MIC (CDC Antibiotic-Resistant Bank No. 0233) | MIC (CDC Antibiotic-Resistant Bank No. 0234) | MIC (CDC Antibiotic-Resistant Bank No. 0235) | MIC (CDC Antibiotic-Resistant Bank No. 0236) | MIC (CDC Antibiotic-Resistant Bank No. 0237) | MIC (CDC Antibiotic-Resistant Bank No. 0238) | MIC (CDC Antibiotic-Resistant Bank No. 0242) | MIC (CDC Antibiotic-Resistant Bank No. 0243) | MIC (CDC Antibiotic-Resistant Bank No. 0245) | MIC (CDC Antibiotic-Resistant Bank No. 0260) | MIC (CDC Antibiotic-Resistant Bank No. 0270) | MIC (CDC Antibiotic-Resistant Bank No. 0768)
1 µg/mL: MIC (CDC Antibiotic-Resistant Bank No. 0239) | MIC (CDC Antibiotic-Resistant Bank No. 0240) | MIC (CDC Antibiotic-Resistant Bank No. 0241) | MIC (CDC Antibiotic-Resistant Bank No. 0244) | MIC (CDC Antibiotic-Resistant Bank No. 0246) | MIC (CDC Antibiotic-Resistant Bank No. 0247) | MIC (CDC Antibiotic-Resistant Bank No. 0248) | MIC (CDC Antibiotic-Resistant Bank No. 0249) | MIC (CDC Antibiotic-Resistant Bank No. 0250) | MIC (CDC Antibiotic-Resistant Bank No. 0251) | MIC (CDC Antibiotic-Resistant Bank No. 0252) | MIC (CDC Antibiotic-Resistant Bank No. 0253) | MIC (CDC Antibiotic-Resistant Bank No. 0254) | MIC (CDC Antibiotic-Resistant Bank No. 0255) | MIC (CDC Antibiotic-Resistant Bank No. 0256) | MIC (CDC Antibiotic-Resistant Bank No. 0257) | MIC (CDC Antibiotic-Resistant Bank No. 0259) | MIC (CDC Antibiotic-Resistant Bank No. 0261) | MIC (CDC Antibiotic-Resistant Bank No. 0262) | MIC (CDC Antibiotic-Resistant Bank No. 0263) | MIC (CDC Antibiotic-Resistant Bank No. 0264) | MIC (CDC Antibiotic-Resistant Bank No. 0265) | MIC (CDC Antibiotic-Resistant Bank No. 0266) | MIC (CDC Antibiotic-Resistant Bank No. 0267) | MIC (CDC Antibiotic-Resistant Bank No. 0268) | MIC (CDC Antibiotic-Resistant Bank No. 0269) | MIC (CDC Antibiotic-Resistant Bank No. 0271) | MIC (CDC Antibiotic-Resistant Bank No. 0272) | MIC (CDC Antibiotic-Resistant Bank No. 0763) | MIC (CDC Antibiotic-Resistant Bank No. 0764) | MIC (CDC Antibiotic-Resistant Bank No. 0765) | MIC (CDC Antibiotic-Resistant Bank No. 0766) | MIC (CDC Antibiotic-Resistant Bank No. 0767) | MIC (CDC Antibiotic-Resistant Bank No. 0769) | MIC (CDC Antibiotic-Resistant Bank No. 0770) | MIC (CDC Antibiotic-Resistant Bank No. 0771) | MIC (CDC Antibiotic-Resistant Bank No. 0772) | MIC (CDC Antibiotic-Resistant Bank No. 0773) | MIC50 (Pseudomonas aeruginosa panel) | MIC90 (Pseudomonas aeruginosa panel)
2 µg/mL: MIC (CDC Antibiotic-Resistant Bank No. 0258)
